Columns and labels:
Type in all cases: cell-based, human
[1] = system: SJ-G2 Glioblastoma cell line; test: DIMSCAN cytotoxicity, fenretinide + L-threo-sphinganines 3:1 (Example B8); conditions: 96 h
Description: (§1) Cytotoxicity Assay—Once again, cytotoxicity is determined using the DIMSCAN assay system (R. Proffitt et al., Cytometry 24, 204-213 (1996); T. Frgala et al., Mol Cancer Ther. 6:886-97, 2007). The system employs digital imaging microscopy to quantify viable cells, which selectively accumulate fluorescein diacetate to become brightly fluorescent. The system is capable of measuring cytotoxicity over a 4-5 log dynamic range by quenching the residual fluorescence of dead and dying cells with eosin Y and quantifying the total fluorescence of viable cells using digital thresholding. Measured fluorescence is directly proportionate to the number of viable cells. A comparison of the total fluorescence of a drug-treated cell population to the fluorescence of a similar number of untreated cells yields a survival fraction. In brief, 2000 to 10,000 cells/well (depending on size and growth rates) are replicate plated into 60 wells of a 96-well tissue culture plate in 0.1 mL of whole medium and allowed to attach overnight. Drug(s) are then added in 0.05 mL of whole medium to the final concentrations indicated. Drugs (fenretinide, and various chain length L-threo-sphinganines) were tested both as single agents and in a 3:1 ratio of fenretinide:sphinganine. C18-L-threo-sphinganine, or “safingol,” was also tested and results shown for reference. There are 12 wells treated per drug concentration. Twelve wells receive drug vehicle-only to the appropriate final concentration and serve as controls for the plate. Cells are incubated for 96 hours at 37° C. in ambient air with 5% CO2. Fluorescein diacetate is then added to each well in 0.05 mL media to a final concentration of 8 microgram/mL. Cells are incubated for a further 15 minutes at 37° C. and 0.03 mL of 0.5% eosin Y is added to each well. Total fluorescence of viable cells is then measured by digital imaging microscopy. Results were graphed as the ratio of the fluoresecence of drug-treated wells to non-drug treated control wells (i.e., Survival Fraction). All tests were performed at least twice. Representative results are shown.
(§2) The Combination Index (CI) is a term to describe mathematical modeling of the pharmacologic effects on cytotoxicity (cell death) of two drugs in combination based. Cytotoxic “synergy” is defined as a cell death affect which is greater than would be expected from a simple product of the single agent cytotoxicities alone (i.e. an “additive” effect). By Chou-Talalay analysis, a CI<0.9 on a Fraction Affected (“Fa”, i.e. fraction of cells killed) indicates synergy, with smaller numbers indicating greater synergy; a CI of 0.9-1.1 signifies an additive or near-additive effect; and a CI>1.1 means the drug combination is antagonistic.
Fenretinide and L-threo-sphinganines tested in human Glioblastoma (brain cancer) cell line, SJ-G2.

[2] = system: HT-29 colorectal adenocarcinoma cell line; test: DIMSCAN cytotoxicity, fenretinide + L-threo-sphinganines 3:1 (Example B10); conditions: 96 h
Description: as §1, §2
Fenretinide and L-threo-sphinganines tested in human colorectal adenocarcinoma (colon cancer) cell line, HT-29.

[3] = system: U-266 Multiple Myeloma cell line; test: DIMSCAN cytotoxicity, fenretinide + L-threo-sphinganines 3:1 (Example B3); conditions: 96 h
Description: as §1, §2
Fenretinide and L-threo-sphinganines tested in human Multiple Myeloma (a cancer of the blood and bone marrow) cell line, U-266.

[4] = system: PANC-1 pancreatic adenocarcinoma cell line; test: DIMSCAN cytotoxicity, fenretinide + L-threo-sphinganines 3:1 (Example B18)
Description: as §1, §2
Fenretinide and L-threo-sphinganines tested in human pancreatic adenocarcinoma (pancreas cancer) cell line, PANC-1.

[5] = system: SJ-GBM2 Glioblastoma multiforme cell line; test: DIMSCAN cytotoxicity, fenretinide + L-threo-sphinganines 3:1 (Example B7); parameters: key to CI (Combination Index): Chou-Talalay CI: <0.9 synergy, 0.9-1.1 additive, >1.1 antagonism; conditions: 96 h
Description: as §1, §2
Fenretinide and L-threo-sphinganines tested in human Glioblastoma multiforme (brain cancer) cell line, SJ-GBM2.

[6] = system: OVCAR-8 ovarian adenocarcinoma cell line; test: DIMSCAN cytotoxicity, fenretinide + L-threo-sphinganines 3:1 (Example B15); parameters: key to CI (Combination Index): Chou-Talalay CI: <0.9 synergy, 0.9-1.1 additive, >1.1 antagonism; conditions: 96 h
Description: as §1, §2
Fenretinide and L-threo-sphinganines tested in human ovarian adenocarcinoma (ovarian cancer) cell line, OVCAR-8.

[7] = system: T98G Glioblastoma multiforme cell line; test: DIMSCAN cytotoxicity, fenretinide + L-threo-sphinganines 3:1 (Example B6); conditions: 96 h
Description: as §1, §2
Fenretinide and L-threo-sphinganines tested in human Glioblastoma multiforme (brain cancer) cell line, T98G.

[8] = system: A-172 Glioblastoma multiforme cell line; test: DIMSCAN cytotoxicity, fenretinide + L-threo-sphinganines 3:1 (Example B4); parameters: key to CI (Combination Index): Chou-Talalay CI: <0.9 synergy, 0.9-1.1 additive, >1.1 antagonism; conditions: 96 h
Description: as §1, §2
Fenretinide and L-threo-sphinganines tested in human Glioblastoma multiforme (brain cancer) cell line, A-172.

[9] = 4-HPR 1.5 μM + L-threo-sphinganine 0.5 μM
[10] = 4-HPR 3 μM + L-threo-sphinganine 1 μM
[11] = 4-HPR 6 μM + L-threo-sphinganine 2 μM
[12] = 4-HPR 9 μM + L-threo-sphinganine 3 μM

`CCCCCCCCCCCCCCCC[C@H](O)[C@@H](N)CO` [C19, (2S,3S)-2-amino-1,3-nonadecanediol] was tested, and the “CI (Combination Index)” value [1, 9] was 0.7, the “Fa (fraction affected)” value [1, 9] was 0.389 and the “CI (Combination Index)” value [1, 10] was 0.8. For the same molecule, the “Fa (fraction affected)” value [1, 10] was 0.700, the “CI (Combination Index)” value [1, 11] was 0.6 and the “Fa (fraction affected)” value [1, 11] was 0.975. The “CI (Combination Index)” value [1, 12] was 0.7, the “Fa (fraction affected)” value [1, 12] was 0.983 and the “CI (Combination Index)” value [2, 9] was 1.2. For the same molecule, the “Fa (fraction affected)” value [2, 9] was 0.138, the “CI (Combination Index)” value [2, 10] was 1.0 and the “Fa (fraction affected)” value [2, 10] was 0.736. For the same molecule, the “CI (Combination Index)” value [2, 11] was 0.8, the “Fa (fraction affected)” value [2, 11] was 0.965 and the “CI (Combination Index)” value [2, 12] was 0.8. The “Fa (fraction affected)” value [2, 12] was 0.993, the “CI (Combination Index)” value [3, 9] was 1.0 and the “Fa (fraction affected)” value [3, 9] was 0.19. The “CI (Combination Index)” value [3, 10] was 1.4, the “Fa (fraction affected)” value [3, 10] was 0.414 and the “CI (Combination Index)” value [3, 11] was 0.9. For the same molecule, the “Fa (fraction affected)” value [3, 11] was 0.933, the “CI (Combination Index)” value [3, 12] was 0.3 and the “Fa (fraction affected)” value [3, 12] was 0.999. It also gave a CI [4, 9] of 1.5, a Fa [4, 9] of 0.182 and a CI [4, 10] of 1.8. The Fa [4, 10] was 0.321, the CI [4, 11] was 1.4 and the Fa [4, 11] was 0.663. The CI [4, 12] was 0.1, the Fa [4, 12] was 0.997 and the “CI (Combination Index)” value [5, 9] was >>1. The “Fa (fraction affected)” value [5, 9] was 0.001, the “CI (Combination Index)” value [5, 10] was 0.4 and the “Fa (fraction affected)” value [5, 10] was 0.672. The “CI (Combination Index)” value [5, 11] was 0.7, the “Fa (fraction affected)” value [5, 11] was 0.925 and the “CI (Combination Index)” value [5, 12] was 0.8. For the same molecule, the “Fa (fraction affected)” value [5, 12] was 0.997, the “CI (Combination Index)” value [6, 9] was 0.1 and the “Fa (fraction affected)” value [6, 9] was 0.787. The “CI (Combination Index)” value [6, 10] was 0.1, the “Fa (fraction affected)” value [6, 10] was 0.881 and the “CI (Combination Index)” value [6, 11] was 0.1. The “Fa (fraction affected)” value [6, 11] was 0.943, the “CI (Combination Index)” value [6, 12] was 0.1 and the “Fa (fraction affected)” value [6, 12] was 0.978. For the same molecule, the “CI (Combination Index)” value [7, 9] was 0.9, the “Fa (fraction affected)” value [7, 9] was 0.584 and the “CI (Combination Index)” value [7, 10] was 1.1. For the same molecule, the “Fa (fraction affected)” value [7, 10] was 0.704, the “CI (Combination Index)” value [7, 11] was 0.1 and the “Fa (fraction affected)” value [7, 11] was 0.990. For the same molecule, the “CI (Combination Index)” value [7, 12] was 0.1, the “Fa (fraction affected)” value [7, 12] was 0.995 and the “CI (Combination Index)” value [8, 9] was 84.4. The “Fa (fraction affected)” value [8, 9] was 0.086, the “CI (Combination Index)” value [8, 10] was 8.1 and the “Fa (fraction affected)” value [8, 10] was 0.578. For the same molecule, the “CI (Combination Index)” value [8, 11] was greater than 0.1, the “Fa (fraction affected)” value [8, 11] was 0.998 and the “CI (Combination Index)” value [8, 12] was greater than 0.1. For the same molecule, the “Fa (fraction affected)” value [8, 12] was 1.000.

— patent US20110152267A1, “Compositions and Methods for Treating Hyperproliferative Disorders” (Texas Tech University System, priority 2009, published 2011)
